pIC50: −log10 of the molar value.
The compounds below were run against T1, GCS (Canis lupus familiaris, UniProt A0A8I3MXG6) (assay: GCS enzymatic assay (MDCK cell lysate, NBD-ceramide to glucosylceramide, LC/MS)). Details: Table 2; class symbols A, B, C; the table does not say which of the assays; read-out: Data Range (IC50 values).
T1 construct: endogenous in cells; host or cells: MDCK (Madin-Darby canine kidney) cells, whole-cell lysate
T1 sequence (A0A8I3MXG6 1-394): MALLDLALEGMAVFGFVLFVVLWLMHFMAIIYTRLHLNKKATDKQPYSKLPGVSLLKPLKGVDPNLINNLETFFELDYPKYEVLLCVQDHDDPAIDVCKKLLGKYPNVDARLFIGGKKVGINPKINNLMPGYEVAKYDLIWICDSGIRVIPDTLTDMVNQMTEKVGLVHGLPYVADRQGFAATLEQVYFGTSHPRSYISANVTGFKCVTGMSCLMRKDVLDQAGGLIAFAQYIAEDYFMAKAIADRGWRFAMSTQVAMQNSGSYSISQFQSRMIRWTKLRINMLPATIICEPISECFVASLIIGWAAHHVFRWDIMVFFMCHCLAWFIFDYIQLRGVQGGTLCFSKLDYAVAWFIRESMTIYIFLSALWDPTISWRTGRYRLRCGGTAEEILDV
Assay type: biochemical, canine
Procedure, shortened: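 IC50 or percent inhibition came from LC/MS/MS (ESI+, MRM) of NBD-ceramide and glucosylceramide, with tolbutamide as internal standard. The reaction used MDCK (canine) cell lysate as the enzyme source and was ended with acetonitrile. Mock wells received 0.1% DMSO.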

pIC50	SMILES
6.00 to 7.00	CC(C)Oc1ccc([C@@H](O)[C@@H](CN2CCCC2)NC(=O)[C@@H]2CCN(c3ccc(F)cc3)C2)cn1 [Compound 31, (R)-1-(4-fluorophenyl)-N-((1R,2R)-1-hydroxy-1-(6-isopropoxypyridin-3-yl)-3-(pyrrolidin-1-yl)propan-2-yl)pyrrolidine-3-carboxamide]
7.52 to 9.00	O=C(N[C@H](CN1CCCC1)[C@H](O)c1ccc(OC2CCOCC2)c(Cl)c1)[C@@H]1CCN(c2ccc(F)cc2)C1 [Compound 32, (R)-N-((1R,2R)-1-(3-chloro-4-((tetrahydro-2H-pyran-4-yl)oxy)phenyl)-1-hydroxy-3-(pyrrolidin-1-yl)propan-2-yl)-1-(4-fluorophenyl)pyrrolidine-3-carboxamide]
7.52 to 9.00	O=C(N[C@H](CN1CCCC1)[C@H](O)c1cc(F)c2c(c1)OCCO2)[C@@H]1CCN(c2ccc(F)cc2)C1 [Compound 35, (R)-N-((1R,2R)-1-(8-fluoro-2,3-dihydrobenzo[b][1,4]dioxin-6-yl)-1-hydroxy-3-(pyrrolidin-1-yl)propan-2-yl)-1-(4-fluorophenyl)pyrrolidine-3-carboxamide]
7.52 to 9.00	O=C(N[C@H](CN1CCCC1)[C@H](O)c1cc(F)c2c(c1)OCCO2)[C@H]1CCN(c2ccc(F)cc2)C1 [Compound 35A, (S)-N-((1R,2R)-1-(8-fluoro-2,3-dihydrobenzo[b][1,4]dioxin-6-yl)-1-hydroxy-3-(pyrrolidin-1-yl)propan-2-yl)-1-(4-fluorophenyl)pyrrolidine-3-carboxamide]

Same assay, conditions: Table 2; class symbols D, E, F, NA (not active); the table does not say which of the assays

SMILES	Data Range (% inhibition)
O=C(N[C@H](CN1CCCC1)[C@H](O)c1ccc(OC2CCOCC2)c(Cl)c1)[C@H]1CCN(c2ccc(F)cc2)C1 [Compound 32A, (S)-N-((1R,2R)-1-(3-chloro-4-((tetrahydro-2H-pyran-4-yl)oxy)phenyl)-1-hydroxy-3-(pyrrolidin-1-yl)propan-2-yl)-1-(4-fluorophenyl)pyrrolidine-3-carboxamide]	F (1-49% (or less than 50%))
O=C(N[C@H](CN1CCCC1)[C@H](O)c1ccc(OCC(F)(F)F)nc1)[C@H]1CCN(c2ccc(Cl)cc2)C1 [Compound 33A, (S)-1-(4-chlorophenyl)-N-((1R,2R)-1-hydroxy-3-(pyrrolidin-1-yl)-1-(6-(2,2,2-trifluoroethoxy)pyridin-3-yl)propan-2-yl)pyrrolidine-3-carboxamide]	NA (not active—a negative value was generated for % inhibition)
O=C(N[C@H](CN1CCCC1)[C@H](O)c1ccc(OCC(F)(F)F)nc1)[C@@H]1CCN(c2ccc(F)cc2)C1 [Compound 34, (R)-1-(4-fluorophenyl)-N-((1R,2R)-1-hydroxy-3-(pyrrolidin-1-yl)-1-(6-(2,2,2-trifluoroethoxy)pyridin-3-yl)propan-2-yl)pyrrolidine-3-carboxamide]	E (50-74% (or less than 75%))
O=C(N[C@H](CN1CCCC1)[C@H](O)c1ccc(OCC(F)(F)F)nc1)[C@H]1CCN(c2ccc(F)cc2)C1 [Compound 34A, (S)-1-(4-fluorophenyl)-N-((1R,2R)-1-hydroxy-3-(pyrrolidin-1-yl)-1-(6-(2,2,2-trifluoroethoxy)pyridin-3-yl)propan-2-yl)pyrrolidine-3-carboxamide]	NA (not active—a negative value was generated for % inhibition)

Results, then the compound that gave them:

Data Range (% inhibition)	SMILES
F (1-49% (or less than 50%))	O=C(N[C@H](CN1CCCC1)[C@H](O)c1ccc(OCC(F)(F)F)nc1)[C@@H]1CCN(c2ccc(Cl)cc2)C1 [Compound 33, (R)-1-(4-chlorophenyl)-N-((1R,2R)-1-hydroxy-3-(pyrrolidin-1-yl)-1-(6-(2,2,2-trifluoroethoxy)pyridin-3-yl)propan-2-yl)pyrrolidine-3-carboxamide]
F (1-49% (or less than 50%))	O=C(N[C@H](CN1CCCC1)[C@H](O)c1ccc2c(c1)OCCO2)[C@@H]1CCN(c2nc3c(s2)CCCC3)C1 [Compound 36, (R)-N-((1R,2R)-1-(2,3-dihydrobenzo[b][1,4]dioxin-6-yl)-1-hydroxy-3-(pyrrolidin-1-yl)propan-2-yl)-1-(4,5,6,7-tetrahydrobenzo[d]thiazol-2-yl)pyrrolidine-3-carboxamide]
